Assay results published in patent US20230108050A1, “CXCL8 (INTERLEUKIN-8) ACTIVITY INHIBITOR AND CORTICOSTEROID COMBINATION AND PHARMACEUTICAL COMPOSITION AND USE THEREOF” (Dompe' farmaceutici SpA, priority 2020, published 2023).

Experiments:
Format in all cases: in vivo, BALB/c mice
[1] = tested on: Th17 glucocorticoid-insensitive asthma mouse model; experiment: Assessment of leukocyte content in the airways (BALF), Example 2a; conditions: DF2755A 10 mg/kg oral twice a day, dexamethasone 5 mg/kg, BALF day 32
Method: The investigation was conducted on the same mouse model as described in Example 1. In details, BALB/c mice received systemic immunization by subcutaneous injection of 20 μg of chicken egg ovalbumin (OVA grade V, >98% pure; Sigma, St Louis, Mo.) in saline, emulsified in 75 μL CFA (Sigma-Aldrich) at day 0. From day 28 after first immunization to day 31, mice were treated with PBS (vehicle), D[…], dexamethasone or D[…]/dexamethasone as described below, and 60 minutes later exposed to aerosolized ovalbumin (1% in saline) for 20 minutes per day. D[…] was administered orally by gavage twice a day so that one of the administrations was always 60 min before the OVA challenge. D[…] was diluted in saline 0.9% only at the time of use at room temperature and used at the dose of 10 mg/kg via the oral route. […] To assess leukocyte infiltration in the airways, bronchoalveolar lavage fluid (BALF) was performed. On day 32 after immunization, an incision was made in the trachea where a 1.7 mm outside diameter polyethylene catheter was inserted. Then, the airways were washed 2 times with 1 mL of phosphate buffer saline (PBS). The samples were centrifuged at 300×g for 10 minutes at 4° C., and 100 μL of 3% BSA in PBS was added to the pellet. A sample of this solution was used to assess the total leukocytes in the airways. The remaining solution was centrifuged at 300×g for 10 minutes at 4° C. and put on a histology glass slide to perform the differential counting of macrophages, lymphocytes, eosinophils and neutrophils using an optical microscopy. The supernatant was used to quantify the amount of total protein and the levels of chemokines and cytokines. The total protein assay was determined using a Bio-Rad protein assay Dye Reagent (Bio-Rad, USA) to measure possible protein leakage.

[2] = tested on: Th17 glucocorticoid-insensitive asthma mouse model; experiment: Chemokine and cytokine analysis in lung (ELISA), Example 2b; conditions: DF2755A 10 mg/kg oral twice a day, dexamethasone 5 mg/kg, lung supernatant ELISA
Method: (§1) The investigation was conducted on the same mouse model as described in Example 1. In details, BALB/c mice received systemic immunization by subcutaneous injection of 20 μg of chicken egg ovalbumin (OVA grade V, >98% pure; Sigma, St Louis, Mo.) in saline, emulsified in 75 μL CFA (Sigma-Aldrich) at day 0.
(§2) From day 28 after first immunization to day 31, mice were treated with PBS (vehicle), DF2755A, dexamethasone or DF2755A/dexamethasone as described below, and 60 minutes later exposed to aerosolized ovalbumin (1% in saline) for 20 minutes per day. DF2755A was administered orally by gavage twice a day so that one of the administrations was always 60 min before the OVA challenge. DF2755A was diluted in saline 0.9% only at the time of use at room temperature and used at the dose of 10 mg/kg via the oral route. Dexamethasone was diluted in saline 0.9% only at the time of use at room temperature and given at the dose of 5 mg/kg.
After BALF, the right lung was removed and a sample of 100 mg was homogenized in 1 mL of PBS (0.4 M NaCl and 10 mM of NaPO4) containing anti-proteases (0.1 mM phenylmethylsulfonyl fluoride, 0.1 mM benzetonium chloride, 10 mM EDTA and 20 KI aprotinin A). The homogenate was centrifuged 8,000×g for 10 minutes at 4° C. The supernatant was frozen for further ELISA assay and the pellet was frozen/thawed three times using liquid nitrogen to assess neutrophil myeloperoxidase (MPO) and eosinophil peroxidase (EPO) activities.
The chemokines CXCL1/KC, CCL2/MCP-1 and CCL24/Eotaxin2, and cytokines TNF-α, IFN-γ and IL-17A levels in supernatant of lung tissue were measured by ELISA. Results were expressed as levels of cytokines (pg/mL or ng/mL) per 0.1 g of wet tissue/mL of extraction buffer.

[3] = tested on: Th17 glucocorticoid-insensitive asthma mouse model; experiment: Neutrophil myeloperoxidase and eosinophil peroxidase activity assays in lung, Example 2c; conditions: DF2755A 10 mg/kg oral twice a day, dexamethasone 5 mg/kg
Method: From day 28 after first immunization to day 31, mice were treated with PBS (vehicle), DF2755A, dexamethasone or DF2755A/dexamethasone as described below, and 60 minutes later exposed to aerosolized ovalbumin (1% in saline) for 20 minutes per day. DF2755A was administered orally by gavage twice a day so that one of the administrations was always 60 min before the OVA challenge. DF2755A was diluted in saline 0.9% only at the time of use at room temperature and used at the dose of 10 mg/kg via the oral route. Dexamethasone was diluted in saline 0.9% only at the time of use at room temperature and given at the dose of 5 mg/kg. […]
The neutrophil myeloperoxidase (MPO) and eosinophil peroxidase (EPO) activities were measured as follows. […] The reaction was stopped by adding 100 μL of H2SO4 and quantified at 450 nm wave lengths in a spectrophotometer (VERSAmax, Molecular Devices, CA). […] After 30 minutes of incubation at room temperature, the reaction was stopped by adding 50 μL of H2SO4 1M and quantified at 492 nm in spectrophotometer.

[4] = tested on: Th17 glucocorticoid-insensitive asthma mouse model; experiment: Assessment of pulmonary mechanics, Example 2d; conditions: DF2755A 10 mg/kg oral twice a day, dexamethasone 5 mg/kg; 24 h after the last challenge; FIG. 8
Method: as §1, §2
(§3) Mice were anesthetized with a subcutaneous injection of ketamine and xylazine (130 mg/Kg ketamine and 8.5 mg/Kg xylazine) to maintain spontaneous breathing under anesthesia. […] Under mechanical respiration the Dynamic Compliance (Cdyn) and Lung Resistance (RI) were determined by Resistance and Compliance RC test. […]

[5] = tested on: Th17 glucocorticoid-insensitive asthma mouse model; experiment: Lung histology (H&E), Example 2e; conditions: DF2755A 10 mg/kg oral twice a day, dexamethasone 5 mg/kg, FIG. 9
Method: After BALF, left lung was removed and fixed in formalin 4% in PBS (pH 7.4). The tissue was dehydrated gradually in ethanol, embedded in paraffin, cut into 4 μm sections and stained with Hematoxylin and Eosin. Photomicrographs were obtained at 400× magnification and were analyzed using the software Image Pro Plus (Image-Pro Plus 4.1, Media Cybernetics, USA).

[6] = tested on: Th17 glucocorticoid-insensitive asthma mouse model; experiment: Leukocytes and protein leakage in airways (BALF), Example 1a; conditions: day 28-31, OVA aerosol
Method: (§4) The investigation was conducted by using a Th17 glucocorticoid-insensitive asthma mouse model previously described (Campa C C et al., Nat Commun (2018), v. 9, p. 5232 and Dejager Let al., Mucosal Immunol (2015), v. 8, p 1212-25).
(§5) In details, BALB/c mice received systemic immunization by subcutaneous injection of 20 μg of chicken egg ovalbumin (OVA grade V, >98% pure; Sigma, St Louis, Mo.) in saline, emulsified in 75 μL CFA (Sigma-Aldrich) at day 0.
(§6) From day 28 after first immunization to day 31, mice were treated with PBS (vehicle), ladarixin, dexamethasone or ladarixin/dexamethasone as described below, and 60 minutes later exposed to aerosolized ovalbumin (1% in saline) for 20 minutes per day. Ladarixin was administered orally by gavage (10 mg/Kg in saline 0.9%), as previously described (Bertini et al., Br J Pharmacol (2012), v. 165, p. 436-54), once a day. Dexamethasone was administered subcutaneously (5 mg/Kg in saline), once a day.
An assessment of total leukocytes content in airways was carried out by performing bronchoalveolar lavage fluid (BALF) as previously described (Russo et al Am J Respir Cell Mol Biol (2009), v. 40, p. 410-21; Campa C C et al., Nat Commun (2018), v. 9, p. 5232). Briefly, an incision was made in the trachea where a 1.7 mm outside diameter polyethylene catheter was inserted. Then, the airways were washed 2 times with 1 mL of phosphate buffer saline (PBS). The samples were centrifuged at 300×g for 10 minutes at 4° C., the pellet was collected, resuspended in 100 μL of 3% BSA in PBS and a sample from this solution was used to assess the total leukocytes in the airways. The remaining was centrifuged at 300×g for 10 minutes at 4° C. on a histology glass slide to assess differential counting of macrophages, lymphocytes, eosinophils and neutrophils using an optical microscopy. Total protein was quantified in the BALF supernatant using a Bio-Rad protein assay Dye Reagent (Bio-Rad, USA) to measure possible protein leakage as previously described (Campa C C et al., Nat Commun (2018), v. 9, p. 5232).

[7] = tested on: Th17 glucocorticoid-insensitive asthma mouse model; experiment: Cytokines quantification in lung tissue (ELISA), Example 1b; conditions: ladarixin 10 mg/Kg oral, dexamethasone 5 mg/Kg s.c., lung lysate ELISA
Method: as §4, §5, §6
The levels of IL17A and TNF-α were also measured in the different experimental mice groups. […] Levels of IL-17A and TNF-α were measured by ELISA using commercial DuoSet kits from R&D Systems, according to the instructions of the manufacturer. Results, shown in FIG. 2, are expressed as pg of cytokines per ml of lung lysate (pg/ml).

[8] = tested on: Th17 glucocorticoid-insensitive asthma mouse model; experiment: Neutrophil peroxidase activity (MPO) in lung tissue, Example 1c; conditions: ladarixin 10 mg/Kg oral, dexamethasone 5 mg/Kg s.c.; after OVA exposure; FIG. 4A
Method: MPO assay was performed on the lung tissue in the different experimental mice groups. In details, MPO assay was performed in a 96-well microplate by adding, in each well, 25 μL of 3,3′-5,5′-tetramethylbenzidine (TMB Sigma) diluted in dimethyl sulfoxide (DMSO; Merck, Darmstadt, Germany) at a final concentration of 1.6 mM; 100 μL of H2O2 0.02% vol/vol in PBS (pH 5.4) containing HTAB and 25 μL of processed tissue supernatant. The reaction started, at 37° C., by adding the TMB solution and the supernatant to the microplate and, after 5 min, H2O2 was added followed by a new incubation at 37° C. for 5 min. The reaction was stopped by adding 100 μL of H2SO4 1M and quantified at 450 nm wavelengths in a spectrophotometer (VERSA max, Molecular Devices, CA).

[9] = tested on: Th17 glucocorticoid-insensitive asthma mouse model; experiment: Histological analysis of lung, pulmonary inflammation score, Example 1d; conditions: ladarixin 10 mg/Kg oral, dexamethasone 5 mg/Kg s.c.; six grade scale 0-5; FIG. 4D, FIG. 3
Method: In details, BALB/c mice received systemic immunization by subcutaneous injection of 20 μg of chicken egg ovalbumin (OVA grade V, >98% pure; Sigma, St Louis, Mo.) in saline, emulsified in 75 μL CFA (Sigma-Aldrich) at day 0. […]
Semiquantitative histopathology analyses were performed as described (Campa C C et al., Nat Commun (2018), v. 9, p. 5232). Briefly, ten random images per lung were acquired at 200× and pulmonary inflammation score was recorded according to a six grade scale where “0” corresponded to less than 1% of lung tissue area inflamed, “1” where up to 9% of lung area was affected by inflammation, “2” when 10% to 29% of lung tissue area was affected, “3” if 30% to 49% of lung tissue area was affected, “4” if 50% to 69% of lung tissue area was affected and “5” if more than 70% of the lung tissue area was affected by inflammation.
After BALF, left lung was removed and fixed in formalin 4% in PBS (pH 7.4), as previously described. […] Photomicrographs were obtained at 400× magnification and were analyzed using the software Image Pro Plus (Image-Pro Plus 4.1, Media Cybernetics, USA) under light microscopy. […]

[10] = tested on: Th17 glucocorticoid-insensitive asthma mouse model; experiment: Assessment of pulmonary mechanics, Example 1e; conditions: ladarixin 10 mg/Kg oral, dexamethasone 5 mg/Kg s.c.; FIG. 5B
Method: as §4, §5, §6
as §3, with “Mice form different experimental groups” for “Mice”

SMILES: C[C@H](C(=O)O)c1ccc(Nc2nc(C(F)(F)F)cs2)cc1 [DF2755A, (2S)-2-(4-{[4-(trifluoromethyl)-1,3-thiazol-2-yl]amino}phenyl) propanoic acid]
- neutrophil influx into the airways (BALF) ([1]; day 28-31, FIG. 6B): able to reduce
- eosinophil influx into the airways (BALF) ([1]; FIG. 6C): able to reduce
- lymphocytes influx into the airways (BALF) ([1]; FIG. 6E): able to reduce
- CXCL1 level in the lungs ([2]; FIG. 7A): significantly reduced
- CCL2 level in the lungs ([2]; FIG. 7B): significantly reduced
- CCL24 level in the lungs ([2]; FIG. 7C): significantly reduced
- IFN-γ level in the lungs ([2]; FIG. 7D): not significant
- IL-17 level in the lungs ([2]; FIG. 7E): significantly reduced
- TNF-α level in the lungs ([2]; FIG. 7F): significantly reduced
- accumulation of neutrophils in the lungs (MPO activity) ([3]; FIG. 6F): prevented the infiltration
- infiltration of eosinophils in the lungs (EPO activity) ([3]; FIG. 6G): prevented the infiltration
- pulmonary function / pulmonary mechanics (pulmonary volumes and resistance) [4]: did not significantly increased pulmonary function
- lung inflammation, accumulation of leukocytes in the lung tissue (histology, inflammatory score) [5]: effective in reducing accumulation of leukocytes

SMILES: C[C@@H](C(=O)NS(C)(=O)=O)c1ccc(OS(=O)(=O)C(F)(F)F)cc1 [ladarixin]
- total leukocyte influx into alveolar space (BALF) ([6]; ladarixin 10 mg/Kg oral once a day, dexamethasone 5 mg/Kg s.c. once a day, FIG. 1A): reduces total leukocyte influx
- macrophages infiltrated into airways (BALF) ([6]; ladarixin 10 mg/Kg oral, dexamethasone 5 mg/Kg s.c., FIG. 1B): marked reduction
- neutrophils infiltrated into airways (BALF) ([6]; ladarixin 10 mg/Kg oral, dexamethasone 5 mg/Kg s.c., FIG. 1C): marked reduction
- eosinophil recruitment into the airways (BALF) ([6]; ladarixin 10 mg/Kg oral, dexamethasone 5 mg/Kg s.c., FIG. 1D): increased
- TNF-α level in lung parenchyma ([7]; FIG. 2A): significantly decreased
- IL-17A level in lung parenchyma ([7]; FIG. 2B): significantly decreased
- neutrophil accumulation in lung parenchyma (MPO activity) [8]: able to prevent the neutrophil accumulation
- pulmonary inflammation score (lung histology) [9]: effective in reducing inflammation
- airway hyperreactivity evoked by methacholine (ΔRI) [10]: able to reduce airway hyperreactivity
